Measurements reported in US8981052B2, “JNK inhibitor molecules” (Xigen Inflammation Ltd., priority 2010, dated 2015).
Where a SMILES comes first, the peptide text is derived from it. Where no end group is shown, it is not given here. [ ]: non-standard residue; d: D form.

Experiments:
[1] = Stability (half-life) of JNK inhibitors in human serum, UPLC-MS
Protocol: The experiment was performed as described by Tugyi et al. (Proc Natl Acad Sci USA, 2005, 413-418). The remaining intact peptide was quantified by UPLC-MS.

His-JNK1 = target: T1, His-JNK1 (Homo sapiens, UniProt P45983); test: AlphaScreen assay, inhibition of JNK1 mediated phosphorylation of biotin-cJun substrate; assay type: biochemical; settings: compared with L-TAT-IB1; JNK isoform not stated
T1 construct: His; purchased Upstate 14-327
Protocol: In the following the standard operating procedure will be set forth describing how the Inhibitory efficacy of JNK inhibitors according to the present invention was measured. The method allows to measure in vitro, in a non radioactive standardized assay, the ability of a candidate compound to decrease the phosphorylation of the c-Jun specific substrate by JNK. Moreover, it will be illustrated how to determine the inhibitory effect (IC50) and the Ki of a chosen compound for JNK.
• His-JNK1 (ref 14-327, Upstate, 10 μg in 100 μl: concentration: 2.2 μM) 5 nM final • His-JNK2 (ref 14-329, Upstate, 10 μg in 100 μl: concentration: 2 μM) 5 nM final • His-JNK3 (ref 14-501, Upstate, 10 μg in 100 μl: concentration: 1.88 μM) 5 nM final • Anti-Phospho-cJun (ref 06-828, Upstate, lot DAM1503356, concentration: 44.5 μM) 10 nM final • Biotin-cJun (29-67): • sequence: Biotin-[…] […]
The bioluminescent energy transfer was read on the Fusion Alpha Plate reader (Perkin Elmer). […]

[2] = tested on: primary rat lymph-nodes purified T cells; test: CD3/CD28-induced IL-2 release in primary rat lymph-nodes purified T cells; assay type: cell-based; settings: inhibitor added 1 h before CD3/CD28 (2 μg/mL), supernatant after 24 h
Protocol: Control rat were sacrificed and lymph-nodes were harvested. T cells further were purified (using magnetic negative selection) and plated into 96-well plates at 200,000 cells/well. Cells were treated with anti-rat CD3 and anti-rat CD28 antibodies (2 μg/mL). JNK inhibitor with SEQ ID NO: 172 was added to the cultures 1 h before CD3/CD28 treatment and IL-2 release was assessed in supernatant 24 h after treatment.
Control animal were sacrificed, lymph nodes (LN) were harvested and kept in complete RPMI medium. LN were smashed with complete RPMI on 70 μm filter using a 5 ml piston. A few drops of media were added to keep strainer wet. Cells were centrifuged for 7 min at 450 g and 4° c. Pellet was resuspended in 5 ml fresh medium. Cells were passed again through cell strainer. An aliquot of cells was counted, while cells were centrifuged again 10 min at 1400 rpm and 4° c. Cells were resupended in MACS buffer (80 μl of MACS buffer per 10^7 cells). 10 μl of anti-rat MHC microbeads were added per 10 million cells, cells were incubated for 15 min at 4°-8° C. Cells were washed with 15 ml MACS buffer and centrifuge for 7 min at 700 g and 4° C. […] Resuspended cells were counted and plated at density of 200000 cells/well in 100 μl of complete medium. […] Cytokines were then measured using standard Elisa kits. Results are expressed as pg/ml of supernatant of the measured cytokine. […]

Hela cells = test: Internalization of TAT derived transporters, 24 hours incubation, fluorescence of cell extracts; assay type: cell-based; settings: FIG. 6; Y in position 2
Protocol: The transporter sequences analyzed correspond to SEQ ID NOs: 52-94 plus SEQ ID NOs: 45, 47, 46, 43 and 99 (FIG. 6a) and SEQ ID NOs: 100-147 (FIG. 6b). […] Hela cells were incubated 24 hours in 96 well plate with […] of the respective transporters. The cells were then washed twice with an acidic buffer (0.2M Glycin, 0.15M NaCl, pH 3.0) and twice with PBS. Cells were broken by the addition of RIPA lysis buffer. The relative amount of internalized peptide was then determined by reading the fluorescence intensity (Fusion Alpha plate reader; PerkinElmer) of each extract followed by background subtraction.
Hela cells were incubated 24 hours in 96 well plate with […] of the r3-L-TAT-derived transporters. The cells were then washed twice with an acidic buffer (0.2M Glycin, 0.15M NaCl, pH 3.0) and twice with PBS. Cells were broken by the addition of RIPA lysis buffer. The relative amount of internalized peptide was then determined by reading the fluorescence intensity (Fusion Alpha plate reader; PerkinElmer) of each extract followed by background subtraction

T1 sequence (P45983 1-384 isoform P45983-2): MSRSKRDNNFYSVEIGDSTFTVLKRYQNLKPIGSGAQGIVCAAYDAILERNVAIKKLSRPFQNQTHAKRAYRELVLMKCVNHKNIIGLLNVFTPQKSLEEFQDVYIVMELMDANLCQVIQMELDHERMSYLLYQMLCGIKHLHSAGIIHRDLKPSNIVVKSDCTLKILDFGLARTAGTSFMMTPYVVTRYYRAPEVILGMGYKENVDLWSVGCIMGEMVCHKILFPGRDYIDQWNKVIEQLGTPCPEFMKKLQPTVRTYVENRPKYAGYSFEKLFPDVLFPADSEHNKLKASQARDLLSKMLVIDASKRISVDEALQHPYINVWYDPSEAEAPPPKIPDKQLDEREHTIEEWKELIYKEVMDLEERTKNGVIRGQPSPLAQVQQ

## CC(C)C[C@H](NC(=O)[C@H](CC(N)=O)NC(=O)[C@H](CC(C)C)NC(=O)[C@@H](NC(=O)[C@@H](C)NC(=O)[C@@H]1CCCN1C(=O)[C@H](CCCNC(=N)N)NC(=O)[C@@H](CCCCN)NC(=O)[C@@H]1CCCN1C(=O)[C@H](CCCNC(=N)N)NC(=O)[C@@H](CCCNC(=N)N)NC(=O)[C@H](CCCNC(=N)N)NC(=O)[C@H](CCCNC(=N)N)NC(=O)[C@H](CCC(N)=O)NC(=O)[C@@H](CCCNC(=N)N)NC(=O)[C@H](CCCNC(=N)N)NC(=O)[C@H](CCCCN)NC(=O)[C@H](CCCCN)NC(=O)[C@H](N)CCCNC(=N)N)[C@@H](C)O)C(=O)N[C@H](Cc1ccccc1)C(N)=O [SEQ ID NO: 172, rKKRrQRRrRPkRPaTLNLf] (H-[dR]KKR[dR]QRR[dR]RP[dK]RP[dA]TLNL[dF]-NH2; N-terminus assumed)
[1]; human serum (50%; 10 and 50% in PBS 1×), 0.1 mM peptide
  time until completely degraded: 14 days

## dqsrpvqpflnlttprkprpprrrqrrkkrg ([dD][dQ][dS][dR][dP][dV][dQ][dP][dF][dL][dN][dL][dT][dT][dP][dR][dK][dP][dR][dP][dP][dR][dR][dR][dQ][dR][dR][dK][dK][dR]G) [SEQ ID NO: 197]
His-JNK1
  inhibitory capacity (JNK inhibition, FIG. 4): significant decrease in inhibitory capacity in comparison to L-TAT-IB1
[1]
  sensitivity to proteolytic degradation: extremely stable towards proteolytic digestion
[2]
  CD3/CD28-induced IL-2 release: Dose-dependent inhibition

## rYKRrQRRr ([dR]YKR[dR]QRR[dR]) [SEQ ID NO: 142]
Hela cells
  transporter activity: highest transporter activity
